“Also recorded” adds a separate entry of the source.
How the values were obtained:
[1] = Kinetic solubility assay (μSOL); format: physicochemical; conditions: pH 7.4
Procedure: The μSOL assay was used for kinetic solubility determination, as described in Avdeef, et al., “Drug absorption in vitro model: filter-immobilized artificial membranes. 2. Studies of the permeability properties of lactones in Piper methysticum Forst,” Eur J Pharm Sci 14, 271-280 (2001), which is incorporated by reference herein. In this assay, the classical saturation shake-flask solubility method was adapted as described. Test compounds were prepared as 10 mM DMSO stock solutions and diluted to a final compound concentration of 150 μM in aqueous solution (pH 7.4, 100 mM phosphate buffer). Samples were incubated at room temperature for 6 hours and vacuum-filtered using Te-Vac (Tecan, Morrisville, N.C.) to remove any precipitates. The concentration of the compound in the filtrate was measured via UV absorbance (k 250-498 nm). The unknown compound concentration was determined by comparing the fully solubilized reference plate which contained 17 μM of compound dissolved in spectroscopically pure n-propanol. All compounds were tested in duplicates. The kinetic solubility (μg/mL) of compounds was calculated using the pSOL Evolution software (Pion Inc., Billerica, Mass.). The three controls used were albendazole (low solubility), phenazolpyridine (moderate solubility) and furosemide (high solubility).

[2] = Parallel artificial membrane permeability assay (PAMPA); format: in vitro ADME; conditions: pH 7.4
From the text: Stirring double-sink PAMPA method was employed to determine the permeability of compounds via PAMPA. The PAMPA lipid membrane consisted of an artificial membrane of a proprietary lipid mixture and dodecane (Pion Inc., Billerica, Mass.), optimized to predict gastrointestinal tract passive permeability. The lipid was immobilized on a plastic matrix of a 96-well “donor” filter plate placed above a 96-well “acceptor” plate. pH 7.4 solution was used in both donor and acceptor wells. The test articles, stocked in 10 mM DMSO solutions, were diluted to 0.05 mM in aqueous buffer (pH 7.4), and the concentration of DMSO was 0.5% in the final solution. During the 30-minute permeation period at room temperature, the test samples in the donor compartment were stirred using the Gutbox technology (Pion Inc.) to reduce the aqueous boundary layer. The test article concentrations in the donor and acceptor compartments were measured using a UV plate reader (Nano Quant, Infinite® 200 PRO, Tecan). Permeability calculations were performed using Pion Inc. software and were expressed in units of 10-6 cm/s. Compounds with low or weak UV signal were analyzed using high resolution LC/MS (Thermo QExactive, Thermo Fisher).

[3] = Rat liver microsome stability assay; format: in vitro ADME; conditions: pH 7.4; rat liver microsomes
Procedure: Single time point microsomal stability was determined in a 96-well HTS format. Sample preparation was automated using an EVO 200 robot (Tecan, Switzerland). A high-resolution LC/MS (Thermo QExactive, ThermoFisher (Waltham, Mass.)) instrument was used to measure the percentage of compound remaining after incubation using a known method. Six standard controls were tested in each run: buspirone and propranolol (for short half-life), loperamide and diclofenac (for short to medium half-life), and carbamazepine and antipyrine (for long half-life). Briefly, the incubation consisted of 0.5 mg/mL microsomal protein, 1.0 μM compound concentration, and NADPH regeneration system (containing 0.650 mM NADP+, 1.65 mM glucose 6-phosphate, 1.65 mM MgCl2, and 0.2 U/mL G6PDH) in 100 mM phosphate buffer at pH 7.4. The incubation was carried out at 37° C. for 15 min. The reaction was quenched by adding 555 μL of acetonitrile (1:2 ratio) containing 0.28 μM albendazole (internal standard).

C57BL/6N mice [4] = assay: Acute scratching behavior, histamine-induced; format: in vivo, mouse; conditions: 163 μg i.p., 10 minutes before 100 μg histamine into nape of neck; bouts per 30 minutes
Procedure: (§1) All experiments using mice followed NIH guidelines and were approved by the National Institute of Dental and Craniofacial Research ACUC. Behavioral assessment of scratching behavior was conducted as follows: 6-8-week old female C57BL/6N mice (Envigo) were injected intraperitoneally with JS-11 (163 μg) or DMSO (20%) as a vehicle control. Ten minutes later, 100 μg histamine diluted in 10 μl PBS or 8.9 μg CYM5442 diluted in 10 μl ddH2O was injected subcutaneously into the nape of the neck. Scratching behavior was recorded for 30 minutes and is presented in bouts per 30 minutes. One bout was defined as scratching behavior towards the injection site between lifting the hind leg from the ground and either putting it back on the ground or guarding the paw with the mouth. To control for motor impairment by JS-11, rota-rod performance was also assessed 10 minutes after intraperitoneal injection.

C57BL/6N mice [5] = assay: Acute scratching behavior, CYM5442-induced; format: in vivo, mouse; conditions: 163 μg i.p., 10 minutes before 8.9 μg CYM5442 into nape of neck; bouts per 30 minutes
Procedure: as §1

C57BL/6N mice [6] = assay: Rotarod performance and gross behavior after JS-11; format: in vivo, mouse
Procedure: as §1

## Cc1cc(CNC(=O)c2ccc3c(c2)n(CC2CC2)c(=O)n3C2CCCCC2)on1 [JS-11, 1-cyclohexyl-3-(cyclopropylmethyl)-N-((3-methylisoxazol-5-yl)methyl)-2-oxo-2,3-dihydro-1H-benzo[d]imidazole-5-carboxamide]
[1]
  water solubility: relatively high-water solubility
[2]
  Papp at 30 min, 0.05 mM: 7.4 ×10⁻⁶ cm/s
[3]
  half-life at 1 μM: 12.4 min
C57BL/6N mice [4]
  Scratching responses to histamine: reduced scratching responses to histamine by more than half; also recorded: significantly attenuated
C57BL/6N mice [5]
  Scratching responses to CYM5442: strongly attenuated itch response; also recorded: significantly attenuated
C57BL/6N mice [6]; 163 μg intraperitoneally
  Overall mouse behavior: no gross change in overall mouse behavior
C57BL/6N mice [6]; 10 minutes after 163 μg JS-11 intraperitoneally
  Motor coordination (rotarod performance): no impairment of motor coordination; also recorded: not significantly altered
